Legend:
HT-29 cells = assay: Apoptosis and necrosis by morphology (acridine orange/ethidium bromide) in HT-29 cells; format: cell-based, human; conditions: HT-29, six days
From the text: Apoptosis occurs naturally during normal tissue turnover and during embryonic development of organs and limbs. Apoptosis also is induced by cytotoxic T-lymphocytes and natural killer cells, by ionizing radiation and by certain chemotherapeutic drugs. Inappropriate regulation of apoptosis is thought to play an important role in many pathological conditions including cancer, AIDS, or Alzheimer's disease, etc. Compounds can be screened for induction of apoptosis using cultures of tumor cells maintained under conditions as described above. Treatment of cells with test compounds involves either pre- or post-confluent cultures and treatment for two to seven days at various concentrations. Apoptotic cells are measured in both the attached and “floating” compartments of the cultures. […]
Reference compounds and test compounds were analyzed for their novel PDE inhibitory activity in accordance with the protocols for the assay, supra. […] Apoptotic and necrotic cell death was determined previously (Duke and Cohen, In: Current Protocols in Immunology, 3.17.1 - 3.17.16, New York, John Wiley and Sons, 1992). […]
The apoptosis inducing activity for a series of phosphodiesterase inhibitors was determined. […] Apoptosis and necrosis were determined morphologically after acridine orange and ethidium bromide labeling in accordance with the assay described, supra. […]

[1] = system: PKG activity in HCT116 colon cancer cells; assay: PKG activity assay in drug-treated HCT116 cells; format: cell-based
From the text: To test the effect of cGMP-specific PDE inhibition on neoplasia containing the β-catenin mutation, HCT116 colon cancer cells were employed. HCT116 is known to contain the β-catenin mutation, but is known not to contain the APC mutation.
The same procedure is used to grow the HCT116 cells as is used in the SW480 procedure described above. In this experiment, only exisulind and controls were used.

[2] = system: β-catenin and PKG levels in SW480 cells; assay: Western blot of β-catenin and PKG in SW480 cells; format: cell-based, human
Description: SW480 cells treated with exisulind as described previously are harvested from the microfuge tubes by rinsing once with ice-cold PBS. The cells are lysed by modified RIPA buffer for 15 minutes with agitation. The cell lysate is spun down in a cold room. The supernatants are transferred to fresh microcentrifuge tubes immediately after spinning. BioRad DC Protein Assay (Temecula, Calif.) is performed to determine the protein concentrations in samples. The samples are normalized for protein concentration, as described above.
50 μg of each sample is loaded onto a 10% SDS gel. SDS-PAGE is performed, and the proteins then are transferred to a nitrocellulose membrane. The blotted nitrocellulose membrane is blocked in freshly prepared TBST containing 5% nonfat dry milk for one hour at room temperature with constant agitation.
A goat-anti-PKG primary antibody is diluted to the recommended concentration/dilution in fresh TBST/5% nonfat dry milk. The nitrocellulose membrane is placed in the primary antibody solution and incubated one hour at room temperature with agitation. The nitrocellulose membrane is washed three times for ten minutes each with TBST. The nitrocellulose membrane is incubated in a solution containing a secondary peroxidase (POD) conjugated rabbit anti-goat antibody for 1 hour at room temperature with agitation. The nitrocellulose membrane is washed three times for ten minutes each time with TBST. The detection is performed by using Boehringer Mannheim BM blue POD substrate.
SW480 cells were treated with exisulind or vehicle (0.1% DMSO) for 48 hours. 50 μg supernatant of each cell lysate was loaded onto a 10% SDS-gel and blotted to a nitrocellulose membrane, and the membrane was probed with rabbit-anti-β-catenin and rabbit anti-PKG antibodies.
This observation was made by culturing SW480 cells with either 200, 400 or 600 μM exisulind or vehicle (0.1% DMSO). The cells are harvested 48 hours post treatment and processed for immunoblotting. Immuno-reactive protein can be detected by Western blot. […]

[3] = Clinical tolerability of exisulind; format: in vivo
From the text: This effect is reversible, and liver enzymes return to normal levels when the administered dose of exisulind returns to the traditionally recommended level or when treatment is discontinued. The purpose of using combinations is to allow a lower dose of each to be used.

CC1=C(CC(=O)O)c2cc(F)ccc2/C1=C\c1ccc(S(C)(=O)=O)cc1 [Exisulind, 5-fluoro-2-methyl-1-(p-methylsulfonylbenzylidene)-3-indenylacetic acid]
apoptotic and necrotic cell death (HT-29 cells): capable of causing apoptotic cell death without inducing necrosis
PKG activation relative to control [1]: PKG activation occurred
reduction of β-catenin expression compared to control ([2]; SW480, 200, 400 or 600 μM, 48 hours): 50%
PKG level ([2]; SW480, 48 hours, FIG. 19): increase of PKG
β-catenin level ([2]; SW480, 48 hours, FIG. 19): drop of β-catenin
side effects at recommended dose ([3]; 300-400 mg/day): no clinically significant side effects
effect at doses higher than the recommended therapeutic levels ([3]; reversible): elevated levels of liver enzymes

— patent publication US20030232862A1 (priority 2002, published 2003)
